In patent US20230257484A1, “DENDROBIUM OFFICINALE OLIGOSACCHARIDE, DENDROBIUM OFFICINALE OLIGOSACCHARIDE DERIVATIVE AND PREPARATION METHOD AND USE THEREOF” (KUNMING INSTITUTE OF BOTANY, CHINESE ACADEMY OF SCIENCES, priority 2021, published 2023):
One block for each molecule: values may come before it.

Assays:
[1] = DPPH free radical scavenging; type: biochemical
Description: Experiment on the DPPH Free Radical Scavenging
DPPH, water-soluble vitamin E (Trolox) (Trolox dissolved in absolute ethanol, with a concentration of 10 mM, stored at −20° C.), pure water.
The drug to be tested was mixed with DPPH (a final concentration of 100 µM) and reacted at 30° C. for 1 h. 3 repeating wells were set, and a blank control well without drug and a Trolox positive control well were set at the same time. The OD value was measured by a microplate reader with a detection wavelength of 515 nm, and the anti-oxidation rate was calculated.
Anti-oxidation rate (%)=(1−experimental well OD515nm/blank well OD515nm)×100%.

[2] = biological target: porcine pancreatic elastase (Sus scrofa, UniProt P00772); assay: Elastase inhibition rate; type: biochemical
Description: Experiment on the Elastase Inhibition Rate
Sample, positive control of catechin, Tris, HCl, porcine pancreatic elastase, N-succinyl-alanine-alanine-alanine-p-nitroaniline, DMSO.
Preparation of a sample solution: 1 mg/mL sample solution was prepared (pure water or a buffer solution was used for preparation, and if insoluble in water or the buffer solution, the sample was firstly dissolved with DMSO, and then water or the buffer solution was added. In principle, the content of DMSO should not exceed 5%).
Preparation of a positive control: 1 mg/mL catechin;
Preparation of a buffer solution: 0.1 M of Tris-HCl buffer solution, PH=8.0;
Preparation of a reaction substrate solution: N-succinyl-alanine-alanine-alanine-p-nitroaniline (AAAPVN) solution (2 mM);
Preparation: 28.5 μL of porcine pancreatic elastase solution (0.171 U/mL) was taken and dissolved in 10 mL of Tris-HCl buffer solution.
(2) The solution of 50 μL of sample, 50 μL of porcine pancreatic elastase and 100 μL of reaction substrate was added to a 96-well plate.
(3) After keeping at room temperature for 5 min, an absorbance at 420 nm was measured.
Elastase inhibition rate (%)=(1−sample OD420 nm/experimental well OD420 nm)×100%.

[3] = tested on: IL-6 secretion, RAW264.7 cells; assay: Immunomodulatory activity: IL-6 secretion by RAW264.7 cells (ELISA); type: cell-based; settings: for IL-6 pg/mL: RAW264.7, 24 h
Description: (§1) Evaluation of the Immunomodulatory Activity of Dendrobium officinale Oligosaccharides RAW264.7 cells, TNF-α kit, IL-6 kit, distilled water. The logarithmic-growth RAW264.7 cells were taken and inoculated into 12-well plates after cell counting. The plate was placed in an incubator overnight, and then the cell supernatant was discarded. Different concentrations of Dendrobium officinale oligosaccharides, lipopolysaccharides and basal medium 1640 were added under aseptic operation, and the supernatant after 24 h of intervention was collected and stored at −20° C. for later use. The changes in TNF-α and IL-6 secretion were detected according to the instructions of the ELISA kit. The OD value was measured by a microplate reader with a detection wavelength of 450 nm. The OD value was substituted into the regression equation of the standard curve to calculate the increase rate of TNF-α and IL-6 secretion.

[4] = tested on: TNF-α secretion, RAW264.7 cells; assay: Immunomodulatory activity: TNF-α secretion by RAW264.7 cells (ELISA); type: cell-based; settings: for TNF-α: RAW264.7, 24 h
Description: as §1

collagenase = assay: Collagenase inhibition rate; type: biochemical
Description: Experiment on Collagenase Inhibition Rate
Protease buffer solution, protease, protease substrate, inhibitor (1,10-Phenanthroline). All reagents were stored at −20° C.
a. Background blank well: 100 μL/well of protease buffer solution.
b. Sample well: 100 μL, prepared into different concentrations.
c. Positive control well: 10 μL of protease+90 μL of protease buffer solution.
(3) After adding reagents according to the above groups, 100 μL of collagenase reaction mixture was added to each well, incubated in the dark, and then the OD value at 345 nm was measured.
The incubation time depended on the activity of the sample to be tested, and the low activity sample could be incubated for 1-3 h.
Collagenase inhibition rate (%)=(ODbackground well−ODsample well)/(ODbackground well−ODpositive control well).

[5] = tested on: secretion of hyaluronic acid, Hacat cells; assay: Promoting secretion of hyaluronic acid in Hacat cells (ELISA); type: cell-based, human; settings: for Secretion of hyaluronic acid: Hacat cells, 24 h
Description: Experiment on Promoting Secretion of Hyaluronic Acid
Human immortalized […] (Hacat cells), human hyaluronic acid Elisa kit, distilled water.
A 96-well plate was inoculated with […] of cell suspension per well, and a concentration of the suspension was 4×10^5 cells/mL. After 24 h of incubation, the original culture medium was discarded, then the cells were washed with PBS for 1-2 times and the serum-free medium containing different concentrations of the drug to be tested was added thereto, and continued to incubate for 24 h. A blank control without drugs and a TGF-β positive control were set. Then the cells were lysed with ripa lysis buffer solution containing 1% PMSF, the supernatant after centrifugation was taken, and the secretion of hyaluronic acid was detected according to the method provided in the […]. The OD value was measured by a microplate reader with a detection wavelength of 450 nm. The OD value was substituted into the regression equation of the standard curve to calculate the increase rate of the secretion of hyaluronic acid.

RAW264.7 cells = assay: Survival of RAW264.7 cells; type: cell-based
Hacat cells = assay: Survival of Hacat cells; type: cell-based, human
[6] = final reaction concentration 4%
[7] = final reaction concentration 8%
[8] = final reaction concentration 11%
[9] = final reaction concentration 15%
[10] = final reaction concentration 20%
[11] = final reaction concentration 1%

porcine pancreatic elastase, sequence (P00772 27-266): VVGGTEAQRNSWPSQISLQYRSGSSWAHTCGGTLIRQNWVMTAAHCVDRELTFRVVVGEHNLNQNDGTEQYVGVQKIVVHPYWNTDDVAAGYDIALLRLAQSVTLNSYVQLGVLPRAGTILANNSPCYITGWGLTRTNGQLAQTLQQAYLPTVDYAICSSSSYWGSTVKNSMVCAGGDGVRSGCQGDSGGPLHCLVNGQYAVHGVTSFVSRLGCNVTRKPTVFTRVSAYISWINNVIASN

elastase inhibition activity ([2]; concentration of 20%): > 10%
Elastase inhibition rate % [2, 6]: −2.135%
Elastase inhibition rate % [2, 7]: 3.886%
Elastase inhibition rate % [2, 8]: 8.417%
Elastase inhibition rate % [2, 9]: 9.723%
Elastase inhibition rate % [2, 10]: 15.827%
collagenase inhibition activity (collagenase; concentration of 0.4%-4%): > 50%
Collagenase inhibition rate (%) (collagenase; final reaction concentration 0.4%): 50.32%
Collagenase inhibition rate (%) (collagenase; final reaction concentration 0.8%): 63.63%
Collagenase inhibition rate (%) (collagenase; [11]): 72.20%
Collagenase inhibition rate (%) (collagenase; final reaction concentration 2%): 84.80%
Collagenase inhibition rate (%) (collagenase; [6]): 110.54%
SMILES: O=C(O)C1O[C@@H](O)C(O)C(O)[C@@H]1O[C@@H]1OC(CO)[C@@H](O[C@@H]2OC(CO)[C@@H](O[C@@H]3OC(CO)[C@@H](O[C@@H]4OC(CO)[C@H](O[C@@H]5OC(CO)[C@H](O)C(O)C5O)C(O)C4O)C(O)C3O)C(O)C2O)C(O)C1O (stereo partly shown) [Dendrobium officinale oligosaccharide]
anti-oxidation rate ([1]; concentration of 15%-20%): > 20%
Anti-oxidation rate (%) [1, 6]: 11.335%
Anti-oxidation rate (%) [1, 7]: 14.346%
Anti-oxidation rate (%) [1, 8]: 16.213%
Anti-oxidation rate (%) [1, 9]: 21.155%
Anti-oxidation rate (%) [1, 10]: 25.217%
secretion of IL-6 by RAW264.7 macrophages (in words) ([3]; concentration of 50 μg/mL, equivalent to the positive control LPS): significantly increased
IL-6 pg/mL ([3]; final reaction concentration 50 μg/mL): 1593.01 pg/mL
IL-6 pg/mL ([3]; final reaction concentration 100 μg/mL): 1376.42 pg/mL
IL-6 pg/mL ([3]; final reaction concentration 200 μg/mL): 1117.33 pg/mL
secretion of TNF-α by RAW264.7 macrophages (in words) ([4]; concentration of 3.125 μg/mL, equivalent to the positive control LPS): significantly increased
TNF-α ([4]; final reaction concentration 3.125 μg/mL): 1062.29 pg/mL
TNF-α ([4]; final reaction concentration 6.25 μg/mL): 35.66 pg/mL
TNF-α ([4]; final reaction concentration 12.5 μg/mL): 53.86 pg/mL
activity to promote the secretion of hyaluronic acid ([5]; concentration of 8%-20%): > 0.3 ng/mL
Secretion of hyaluronic acid [5, 6]: 0.2294 ng/mL
Secretion of hyaluronic acid [5, 7]: 0.5530 ng/mL
Secretion of hyaluronic acid [5, 8]: 0.3691 ng/mL
Secretion of hyaluronic acid [5, 9]: 0.4930 ng/mL
Secretion of hyaluronic acid [5, 10]: 0.5392 ng/mL
survival rate and survival time of cells (RAW264.7 cells): increase the survival rate and survival time
survival rate and survival time of cells (Hacat cells): increase the survival rate and survival time

Collagenase inhibition rate (%) (collagenase; [11]): 102.23%
SMILES: c1cnc2c(c1)ccc1cccnc12 [Positive inhibitor, 1,10-Phenanthroline, reference compound]

inhibition at 100 µg/mL ([2]; final reaction concentration 100 μg/ml): 68.5%
SMILES: O=C(O[C@@H]1Cc2c(O)cc(O)cc2O[C@@H]1c1ccc(O)c(O)c1)c1cc(O)c(O)c(O)c1 [epicatechin gallate, reference compound]

SMILES: Cc1c(C)c2c(c(C)c1O)CCC(C)(C(=O)O)O2 (stereo not shown) [Trolox, reference compound]
Anti-oxidation rate (%) ([1]; final reaction concentration 25 (unit not given), DPPH, 30° C., 1 h): 95.668%
